Target: T1, Cdk2(2-298) (Homo sapiens, UniProt P24941)
T1 construct: Biotinylated N-terminal avi-tagged Cdk2(2-298) or Cdk1(1-297) was immobilized
Assay: Surface Plasmon Resonance (SPR), Biacore 8K, compound interaction with immobilized kinase
Format: binding
Details: biotinylated N-terminal avi-tagged protein on Chip SA, single-cycle kinetics (SCK, "S") mode, 1% DMSO, pH 7.5, read-out: Activity rating* (KD)
Method: Surface Plasmon Resonance (SPR) Method Description
Compound interaction was profiled using a Biacore 8K instrument (Cytiva). Biotinylated N-terminal avi-tagged Cdk2(2-298) or Cdk1(1-297) was immobilized on a series S sensor Chip SA at a capture level between 2500 RU and 3000 RU (Cdk2) or 7000 RU (Cdk1) in buffer (25 mM HEPES, 150 mM NaCl, 0.05% Tween20, pH 7.5). A compound dilution plate (8 concentrations, 3-fold dilution) in DMSO was prepared (100× assay concentration). From this plate, compound DMSO stock solution was transferred into buffer, yielding a final DMSO concentration of 1% in assay. The remaining buffer was supplemented with 1% DMSO. Compounds were injected in a series of increasing concentrations in multi-cycle kinetics (MCK, “M”) or single-cycle kinetics (SCK, “S”) mode at a flow rate of 30 μl/min for 120 sec and dissociation was profiled for 180 sec (MCK) or 1800 sec (SCK). Data were analysed using Biacore Insight Evaluation Software (Cytiva).

Compound | Kd [nM]
N[C@H]1CC[C@H](Nc2nccc(-c3nccnc3Oc3ccc(NS(=O)(=O)c4ccccc4Cl)cc3F)n2)CC1 [Compound 402, N-[4-[(1r,4r)[3-[2-[(4-Aminocyclohexyl)amino]pyrimidin-4-yl]pyrazin-2-yl]oxy]-3-fluorophenyl]2-chlorobenzenesulfonamide] | 100 to 1000
N[C@H]1CC[C@H](Nc2nccc(-c3scnc3Oc3ccc(NS(=O)(=O)c4ccccc4Cl)cc3F)n2)CC1 [Compound 403, N-[4-[(1r,4r)[5-[2-[(4-Aminocyclohexyl)amino]pyrimidin-4-yl]thiazol-4-yl]oxy]-3-fluorophenyl]2-chlorobenzenesulfonamide] | ≤ 10
N[C@H]1CC[C@H](Nc2nccc(-c3cccnc3Oc3ccc(NS(=O)(=O)c4ccccc4Cl)cc3F)n2)CC1 [Compound 410, N-[4-[(1r,4r)[3-[2-[(4-Aminocyclohexyl)amino]pyrimidin-4-yl]pyrid-2-yl]oxy]-3-fluorophenyl]2-chlorobenzenesulfonamide] | ≤ 10
N[C@H]1CC[C@H](Nc2nccc(-c3cccnc3Oc3ccc(NS(=O)(=O)c4ccccc4Cl)cc3)n2)CC1 [Compound 411, N-[4-[(1r,4r)[3-[2-[(4-Aminocyclohexyl)amino]pyrimidin-4-yl]-2-pyridyl]oxy]phenyl]2-chlorobenzenesulfonamide] | 11 to 100
O=S(=O)(Nc1ccc(Oc2ncsc2-c2ccnc(N[C@H]3CCCNC3)n2)c(F)c1)c1ccccc1Cl [Compound 391, N-[3-Fluoro-4-[[5-[2-[[(3S)-3-piperidinyl]amino]pyrimidin-4-yl]-4-thiazolyl]oxy]phenyl]2-chlorobenzenesulfonamide] | ≤ 10
O=S(=O)(Nc1ccc(Oc2nccnc2-c2ccnc(N[C@H]3CCCNC3)n2)c(F)c1)c1ccccc1Cl [Compound 390, N-[3-Fluoro-4-[[3-[2-[[(3S)-3-piperidinyl]amino]pyrimidin-4-yl]-2-pyrazinyl]oxy]phenyl]2-chlorobenzenesulfonamide] | 11 to 100

Next, values leading:

Kd [nM] | Compound
11 to 100 | N[C@H]1CC[C@H](Nc2nccc(-c3cccnc3Oc3cc(Cl)c(NS(=O)(=O)c4cccc5ccccc45)cc3F)n2)CC1 [Compound 416, N-[4-[(1r,4r)[3-[2-[(4-Aminocyclohexyl)amino]pyrimidin-4-yl]pyrid-2-yl]oxy]-6-chloro-3-fluorophenyl]naphthalene-1-sulfonamide]
≤ 10 | O=S(=O)(Nc1ccc(Oc2ncccc2-c2ccnc(N[C@H]3CCCNC3)n2)c(F)c1)c1ccccc1Cl [Compound 413, N—((S)-4-((3-(2-(piperidin-3-ylamino)pyrimidin-4-yl)pyridin-2-yl)oxy)-3-fluorophenyl) 2-chlorobenzenesulfonamide]
≤ 10 | N[C@H]1CC[C@H](Nc2nccc(-c3cccnc3Oc3cc(Cl)c(NS(=O)(=O)c4ccccc4Cl)cc3F)n2)CC1 [Compound 414, N-[4-[(1r,4r)[3-[2-[(4-Aminocyclohexyl)amino]pyrimidin-4-yl]pyrid-2-yl]oxy]-6-chloro-3-fluorophenyl]2-chlorobenzenesulfonamide]
100 to 1000 | N[C@H]1CC[C@H](Nc2nccc(-c3cccnc3Oc3ccc(NS(=O)(=O)c4ccc5ccccc5c4)cc3F)n2)CC1 [Compound 417, N-[4-[(1r,4r)[3-[2-[(4-Aminocyclohexyl)amino]pyrimidin-4-yl]pyrid-2-yl]oxy]-3-fluorophenyl]naphthalene-2-sulfonamide]
11 to 100 | N[C@H]1CC[C@H](Nc2nccc(-c3cccnc3Oc3ccc(NS(=O)(=O)c4cccc5ccccc45)cc3F)n2)CC1 [Compound 415, N-[4-[(1r,4r)[3-[2-[(4-Aminocyclohexyl)amino]pyrimidin-4-yl]pyrid-2-yl]oxy]-3-fluorophenyl]naphthalene-1-sulfonamide]
11 to 100 | O=S(=O)(Nc1ccc(Oc2ncccc2-c2ccnc(N[C@H]3CCCNC3)n2)cc1)c1ccccc1Cl [Compound 412, N—((S)-4-((3-(2-(Piperidin-3-ylamino)pyrimidin-4-yl)pyridin-2-yl)oxy)phenyl) 2-chlorobenzenesulfonamide]

— US20260272925A1, “CDK2 MODULATORS, COMPOSITIONS, AND METHODS OF USE THEREOF” (Type6 Therapeutics, Inc., priority 2023, published 2026)
